Literature values, collected in patent publication US20210275558A1, “METHODS FOR TREATING, PHARMACEUTICAL COMPOSITIONS AND USES THEREOF” (Boehringer Ingelheim International GmbH, priority 2018, published 2021).

Assays:
[1] = tested on: patients with type 2 diabetes mellitus and high cardiovascular risk
[2] = crystalline form
[3] = in vivo
[4] = secondary outcomes analyses, patients with type 2 diabetes and established cardiovascular disease

OC[C@H]1O[C@@H](c2ccc(Cl)c(Cc3ccc(O[C@H]4CCOC4)cc3)c2)[C@H](O)[C@@H](O)[C@@H]1O [empagliflozin, 1-chloro-4-(β-D-glucopyranos-1-yl)-2-[4-((S)-tetrahydrofuran-3-yloxy)-benzyl]benzene]
reflex-mediated sympathetic activation ([1]; in contrast to increases observed with diuretics): not being associated with clinically relevant reflex-mediated sympathetic activation
blood pressure and heart rate ([1]; in vivo): blood pressure reductions without clinically relevant changes of the heart rate
risk of cardiovascular death, hospitalization for heart failure and overall mortality ([1]; patients with type 2 diabetes mellitus and high cardiovascular risk): reduced the risk of cardiovascular death, hospitalization for heart failure and overall mortality
progression of kidney disease [1, 4]: slowed progression of kidney disease
risk for clinically relevant kidney events (inclusive end-stage kidney disease) [1, 4]: reduced the risk for clinically relevant kidney events
solubility [2]: good solubility properties
stability [2]: physico-chemically stable
diuretic, arterial stiffness and vascular effects [3]: diuretic effect, reduced arterial stiffness and direct vascular effects
